Laboratory results reported in PubChem BioAssay (NCI).
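Exposure lasted 48 hours, with cells grown in 96-well plates and compounds tested at five concentrations. GI50 marks 50% less growth. TGI: concentration producing complete growth inhibition.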

Experiments:
Assay in all cases: DTP human tumour cell line panel, 48 h; in the data active = GI50 below about 0.43 µM; inactive = the rest
LOX IMVI melanoma = tested on: LOX IMVI melanoma
OVCAR-5 ovarian = tested on: OVCAR-5 ovarian
ACHN renal = tested on: ACHN renal
SN12C renal = tested on: SN12C renal
RPMI-8226 leukemia = tested on: RPMI-8226 leukemia
UACC-62 melanoma = tested on: UACC-62 melanoma
SF-539 CNS = tested on: SF-539 CNS
HCT-116 colon = tested on: HCT-116 colon
SK-MEL-5 melanoma = tested on: SK-MEL-5 melanoma
OVCAR-4 ovarian = tested on: OVCAR-4 ovarian
HL-60(TB) leukemia = tested on: HL-60(TB) leukemia
U251 CNS = tested on: U251 CNS
OVCAR-8 ovarian = tested on: OVCAR-8 ovarian
HCC-2998 colon = tested on: HCC-2998 colon
PC-3 prostate = tested on: PC-3 prostate
K-562 leukemia = tested on: K-562 leukemia
NCI-H226 lung = tested on: NCI-H226 lung
T-47D breast = tested on: T-47D breast
DU-145 prostate = tested on: DU-145 prostate
M14 melanoma = tested on: M14 melanoma
IGROV1 ovarian = tested on: IGROV1 ovarian
COLO 205 colon = tested on: COLO 205 colon
NCI-H23 lung = tested on: NCI-H23 lung
MDA-MB-231 breast = tested on: MDA-MB-231 breast
SK-MEL-28 melanoma = tested on: SK-MEL-28 melanoma
MDA-MB-435 = tested on: MDA-MB-435
SW-620 colon = tested on: SW-620 colon
SNB-19 CNS = tested on: SNB-19 CNS
UACC-257 melanoma = tested on: UACC-257 melanoma
BT-549 breast = tested on: BT-549 breast
A498 renal = tested on: A498 renal
HS 578T breast = tested on: HS 578T breast
TK-10 renal = tested on: TK-10 renal
OVCAR-3 ovarian = tested on: OVCAR-3 ovarian
EKVX NSCLC = tested on: EKVX NSCLC
HOP-62 NSCLC = tested on: HOP-62 NSCLC
HT29 colon = tested on: HT29 colon
A549 NSCLC = tested on: A549 NSCLC
SF-268 CNS = tested on: SF-268 CNS
SR leukemia = tested on: SR leukemia
CCRF-CEM leukemia = tested on: CCRF-CEM leukemia
UO-31 renal = tested on: UO-31 renal
NCI-H522 lung = tested on: NCI-H522 lung
SK-OV-3 ovarian = tested on: SK-OV-3 ovarian
NCI/ADR-RES ovarian = tested on: NCI/ADR-RES ovarian
SK-MEL-2 melanoma = tested on: SK-MEL-2 melanoma
SF-295 CNS = tested on: SF-295 CNS
KM12 colon = tested on: KM12 colon
MALME-3M melanoma = tested on: MALME-3M melanoma
MCF7 breast = tested on: MCF7 breast
HOP-92 NSCLC = tested on: HOP-92 NSCLC
CAKI-1 renal = tested on: CAKI-1 renal
MOLT-4 leukemia = tested on: MOLT-4 leukemia
NCI-H460 lung = tested on: NCI-H460 lung
786-0 renal = tested on: 786-0 renal
HCT-15 colon = tested on: HCT-15 colon
SNB-75 CNS = tested on: SNB-75 CNS

O=C1CSC(c2cccc([N+](=O)[O-])c2)N1c1ccc(-c2ccc(-n3c(-c4ccccc4)nc4ccccc4c3=O)cc2)cc1 (stereo not drawn)
81 µM: TGI (KM12 colon)
91.9 µM: TGI (CCRF-CEM leukemia)
98.3 µM: TGI (BT-549 breast)
92.6 µM: TGI (MCF7 breast)
> 100 µM: TGI (LOX IMVI melanoma) | TGI (OVCAR-5 ovarian) | TGI (ACHN renal) | TGI (SN12C renal) | TGI (RPMI-8226 leukemia) | TGI (UACC-62 melanoma) | TGI (SF-539 CNS) | TGI (HCT-116 colon) | TGI (SK-MEL-5 melanoma) | TGI (OVCAR-4 ovarian) | TGI (HL-60(TB) leukemia) | TGI (U251 CNS) | TGI (OVCAR-8 ovarian) | TGI (HCC-2998 colon) | TGI (PC-3 prostate) | TGI (K-562 leukemia) | TGI (NCI-H226 lung) | TGI (T-47D breast) | TGI (DU-145 prostate) | TGI (M14 melanoma) | TGI (IGROV1 ovarian) | TGI (COLO 205 colon) | TGI (NCI-H23 lung) | TGI (MDA-MB-231 breast) | TGI (SK-MEL-28 melanoma) | TGI (MDA-MB-435) | TGI (SW-620 colon) | TGI (SNB-19 CNS) | TGI (UACC-257 melanoma) | TGI (A498 renal) | TGI (HS 578T breast) | TGI (TK-10 renal) | TGI (OVCAR-3 ovarian) | TGI (EKVX NSCLC) | TGI (HOP-62 NSCLC) | TGI (HT29 colon) | TGI (A549 NSCLC) | TGI (SF-268 CNS) | TGI (SR leukemia) | TGI (UO-31 renal) | TGI (NCI-H522 lung) | TGI (SK-OV-3 ovarian) | TGI (NCI/ADR-RES ovarian) | TGI (SK-MEL-2 melanoma) | TGI (SF-295 CNS) | TGI (MALME-3M melanoma) | TGI (HOP-92 NSCLC) | TGI (CAKI-1 renal) | TGI (MOLT-4 leukemia) | TGI (NCI-H460 lung) | TGI (786-0 renal) | TGI (HCT-15 colon)

O=C1c2ccccc2-c2c1c1ccc([N+](=O)[O-])cc1c(=O)n2CCCN1CCOCC1
16.7 µM: TGI (BT-549 breast)
24.7 µM: TGI (MALME-3M melanoma)
0.521 µM: TGI (RPMI-8226 leukemia)
> 52.6 µM: TGI (SNB-19 CNS)
> 87.4 µM: TGI (MDA-MB-231 breast)
15.8 µM: TGI (U251 CNS)
0.338 µM: TGI (LOX IMVI melanoma)
active: GI50 (LOX IMVI melanoma) 0.0813 µM | GI50 (ACHN renal) 0.128 µM | GI50 (SN12C renal) 0.333 µM | GI50 (RPMI-8226 leukemia) 0.138 µM | GI50 (UACC-62 melanoma) 0.403 µM | GI50 (SF-539 CNS) 0.119 µM | GI50 (HCT-116 colon) 0.0851 µM | GI50 (HL-60(TB) leukemia) 0.147 µM | GI50 (U251 CNS) 0.0923 µM | GI50 (OVCAR-8 ovarian) 0.32 µM | GI50 (PC-3 prostate) 0.291 µM | GI50 (K-562 leukemia) 0.324 µM | GI50 (T-47D breast) 0.0971 µM | GI50 (DU-145 prostate) 0.084 µM | GI50 (M14 melanoma) 0.122 µM | GI50 (IGROV1 ovarian) 0.238 µM | GI50 (NCI-H23 lung) 0.16 µM | GI50 (SW-620 colon) 0.16 µM | GI50 (SNB-19 CNS) 0.378 µM | GI50 (BT-549 breast) 0.311 µM | GI50 (HOP-62 NSCLC) 0.0486 µM | GI50 (SF-268 CNS) 0.114 µM | GI50 (SR leukemia) 0.0139 µM | GI50 (CCRF-CEM leukemia) 0.0224 µM | GI50 (UO-31 renal) 0.195 µM | GI50 (NCI-H522 lung) 0.424 µM | GI50 (NCI/ADR-RES ovarian) 0.293 µM | GI50 (SF-295 CNS) 0.182 µM | GI50 (KM12 colon) 0.258 µM | GI50 (MALME-3M melanoma) 0.268 µM | GI50 (MCF7 breast) < 0.0166 µM | GI50 (CAKI-1 renal) 0.232 µM | GI50 (MOLT-4 leukemia) 0.0625 µM | GI50 (NCI-H460 lung) 0.193 µM | GI50 (786-0 renal) 0.135 µM | GI50 (HCT-15 colon) 0.396 µM
> 64.8 µM: TGI (NCI-H226 lung)
0.495 µM: TGI (M14 melanoma)
> 56.7 µM: TGI (HS 578T breast)
31.8 µM: TGI (SF-295 CNS)
1.81 µM: TGI (HCT-116 colon)
> 41.1 µM: TGI (HOP-92 NSCLC)
2.32 µM: TGI (786-0 renal)
inactive: GI50 (OVCAR-5 ovarian) 13 µM | GI50 (SNB-75 CNS) 1.01 µM | GI50 (OVCAR-4 ovarian) 0.776 µM | GI50 (HCC-2998 colon) > 41 µM | GI50 (NCI-H226 lung) > 34.3 µM | GI50 (COLO 205 colon) 7.92 µM | GI50 (MDA-MB-231 breast) 24.8 µM | GI50 (SK-MEL-28 melanoma) > 100 µM | GI50 (MDA-MB-435) 0.867 µM | GI50 (UACC-257 melanoma) 19.6 µM | GI50 (A498 renal) > 38.8 µM | GI50 (HS 578T breast) 5.97 µM | GI50 (TK-10 renal) 25.2 µM | GI50 (OVCAR-3 ovarian) 12.4 µM | GI50 (EKVX NSCLC) 20.9 µM | GI50 (A549 NSCLC) 9.37 µM | GI50 (SK-OV-3 ovarian) 6.57 µM | GI50 (SK-MEL-2 melanoma) > 61.2 µM
> 92.4 µM: TGI (A498 renal)
0.121 µM: TGI (CCRF-CEM leukemia)
> 48.3 µM: TGI (OVCAR-4 ovarian)
> 92.7 µM: TGI (EKVX NSCLC)
24.8 µM: TGI (NCI/ADR-RES ovarian)
29.9 µM: TGI (OVCAR-3 ovarian)
0.346 µM: TGI (HOP-62 NSCLC)
3.09 µM: TGI (DU-145 prostate)
> 100 µM: TGI (OVCAR-5 ovarian) | TGI (SN12C renal) | TGI (SNB-75 CNS) | TGI (UACC-62 melanoma) | TGI (HL-60(TB) leukemia) | TGI (OVCAR-8 ovarian) | TGI (HCC-2998 colon) | TGI (PC-3 prostate) | TGI (K-562 leukemia) | TGI (T-47D breast) | TGI (IGROV1 ovarian) | TGI (COLO 205 colon) | TGI (SK-MEL-28 melanoma) | TGI (MDA-MB-435) | TGI (SW-620 colon) | TGI (UACC-257 melanoma) | TGI (TK-10 renal) | TGI (A549 NSCLC) | TGI (SF-268 CNS) | TGI (SR leukemia) | TGI (UO-31 renal) | TGI (NCI-H522 lung) | TGI (SK-OV-3 ovarian) | TGI (SK-MEL-2 melanoma) | TGI (KM12 colon) | TGI (MCF7 breast) | TGI (CAKI-1 renal) | TGI (MOLT-4 leukemia) | TGI (NCI-H460 lung) | TGI (HCT-15 colon)
0.415 µM: TGI (SF-539 CNS)
